According to PubChem BioAssay AID1259407 (Chemical Carcinogenesis Research Information System (CCRIS), 2018):
Calls of active or inactive are those of the source. How the calls were made is not given here.

Test system: CCRIS mutagenicity, Ames/micronucleus/aberration tests
Test: CCRIS mutagenicity studies
[1] = Test System: AMES SALMONELLA TYPHIMURIUM, Strain/Indicator: TA98, Metabolic Activation: NONE, Method: PREINCUBATION
[2] = Test System: AMES SALMONELLA TYPHIMURIUM, Strain/Indicator: TA98, Metabolic Activation: NONE, Method: STANDARD PLATE
[3] = Test System: AMES SALMONELLA TYPHIMURIUM, Strain/Indicator: TA100, Metabolic Activation: NONE, Method: STANDARD PLATE
[4] = Test System: MOUSE LYMPHOMA, Strain/Indicator: L5178Y (TK+/TK-), Metabolic Activation: NONE, Method: SUSPENSION/PLATE
[5] = Test System: MOUSE LYMPHOMA, Strain/Indicator: L5178Y (TK+/TK-), Metabolic Activation: RAT, LIVER, S-9, AROCLOR 1254, Method: SUSPENSION/PLATE
[6] = Test System: AMES SALMONELLA TYPHIMURIUM, Strain/Indicator: TA98, Metabolic Activation: RAT, LIVER, S-9, AROCLOR 1254, Method: STANDARD PLATE
[7] = Test System: AMES SALMONELLA TYPHIMURIUM, Strain/Indicator: TA100, Metabolic Activation: RAT, LIVER, S-9, AROCLOR 1254, Method: STANDARD PLATE
[8] = Test System: AMES SALMONELLA TYPHIMURIUM, Strain/Indicator: TA1535, Metabolic Activation: NONE, Method: STANDARD PLATE
[9] = Test System: AMES SALMONELLA TYPHIMURIUM, Strain/Indicator: TA1535, Metabolic Activation: RAT, LIVER, S-9, AROCLOR 1254, Method: STANDARD PLATE
[10] = Test System: AMES SALMONELLA TYPHIMURIUM, Strain/Indicator: TA1537, Metabolic Activation: NONE, Method: STANDARD PLATE
[11] = Test System: AMES SALMONELLA TYPHIMURIUM, Strain/Indicator: TA1537, Metabolic Activation: RAT, LIVER, S-9, AROCLOR 1254, Method: STANDARD PLATE
[12] = Test System: AMES SALMONELLA TYPHIMURIUM, Strain/Indicator: TA100, Metabolic Activation: RAT, LIVER, S-9, AROCLOR 1254, Method: PREINCUBATION

Measured: mutagenic call

O=[N+]([O-])c1cccc2nc3cccc([N+](=O)[O-])c3nc12
active: Test System: AMES SALMONELLA TYPHIMURIUM, Strain/Indicator: TA98(NR), Metabolic Activation: NONE, Method: PREINCUBATION active; positive | [1] active; positive

O=C(O)C1=NN(c2ccc(S(=O)(=O)O)cc2)C(=O)C1N=Nc1ccc(S(=O)(=O)O)cc1 (stereo unspecified)
inactive: [2] inactive; negative | Test System: AMES SALMONELLA TYPHIMURIUM, Strain/Indicator: TA98, Metabolic Activation: RAT LIVER S-9, AROCLOR 1254, Method: STANDARD PLATE inactive; negative | [3] inactive; negative | Test System: AMES SALMONELLA TYPHIMURIUM, Strain/Indicator: TA100, Metabolic Activation: RAT LIVER S-9, AROCLOR 1254, Method: STANDARD PLATE inactive; negative | Test System: Mouse lymphoma, Strain/Indicator: L5178Y (tk+/tk-), Metabolic Activation: None, Method: Suspension/plate inactive; negative | Test System: Mouse lymphoma, Strain/Indicator: L5178Y (tk+/tk-), Metabolic Activation: Rat, Liver, S-9, Aroclor 1254, Method: Suspension/plate inactive; negative

NCCc1ccc(O)cc1
active: [4] active; positive | [5] active; positive

CN=NNc1ccc(C(=O)O)cc1
active: Test System: AMES SALMONELLA TYPHIMURIUM, Strain/Indicator: TA92, Metabolic Activation: NONE, Method: STANDARD PLATE active; positive | Test System: E. COLI B, Strain/Indicator: TM9, Metabolic Activation: NONE, Method: STANDARD PLATE active; positive

FC(F)(F)c1ccc(Cl)cc1
inactive: Test System: AMES SALMONELLA TYPHIMURIUM, Strain/Indicator: TA98, Metabolic Activation: HAMSTER, LIVER, S-9, AROCLOR 1254, Method: STANDARD PLATE inactive; negative | [2] inactive; negative | [6] inactive; negative | Test System: AMES SALMONELLA TYPHIMURIUM, Strain/Indicator: TA100, Metabolic Activation: HAMSTER, LIVER, S-9, AROCLOR 1254, Method: STANDARD PLATE inactive; negative | [3] inactive; negative | [7] inactive; negative | Test System: AMES SALMONELLA TYPHIMURIUM, Strain/Indicator: TA1535, Metabolic Activation: HAMSTER, LIVER, S-9, AROCLOR 1254, Method: STANDARD PLATE inactive; negative | [8] inactive; negative | [9] inactive; negative | Test System: AMES SALMONELLA TYPHIMURIUM, Strain/Indicator: TA1537, Metabolic Activation: HAMSTER, LIVER, S-9, AROCLOR 1254, Method: STANDARD PLATE inactive; negative | [10] inactive; negative | [11] inactive; negative | Test System: AMES SALMONELLA TYPHIMURIUM, Strain/Indicator: TA1538, Metabolic Activation: HAMSTER, LIVER, S-9, AROCLOR 1254, Method: STANDARD PLATE inactive; negative | Test System: AMES SALMONELLA TYPHIMURIUM, Strain/Indicator: TA1538, Metabolic Activation: NONE, Method: STANDARD PLATE inactive; negative | Test System: AMES SALMONELLA TYPHIMURIUM, Strain/Indicator: TA1538, Metabolic Activation: RAT, LIVER, S-9, AROCLOR 1254, Method: STANDARD PLATE inactive; negative | [4] inactive; negative. reevaluation of results: negative | [5] inactive; negative. reevaluation of results: equivocal

Nc1ncnc2c1ncn2C(c1ccccc1)c1ccccc1
inactive: Test System: AMES SALMONELLA TYPHIMURIUM, Strain/Indicator: TA97, Metabolic Activation: NONE, Method: STANDARD PLATE inactive; negative | Test System: AMES SALMONELLA TYPHIMURIUM, Strain/Indicator: TA97, Metabolic Activation: RAT, LIVER, S-9, AROCLOR 1254, Method: STANDARD PLATE inactive; negative | [2] inactive; negative | [3] inactive; negative | [7] inactive; negative
active: [6] active; positive

CCCCCCc1ccc(O)cc1O
inactive: End Point: IN VITRO CHROMOSOMAL ABERRATIONS, Test System: CHO CELLS, Metabolic Activation: NONE inactive; negative | End Point: IN VITRO CHROMOSOMAL ABERRATIONS, Test System: CHO CELLS, Metabolic Activation: RAT, LIVER, S-9, AROCLOR 1254 inactive; negative | Test System: AMES SALMONELLA TYPHIMURIUM, Strain/Indicator: TA98, Metabolic Activation: HAMSTER, LIVER, S-9, AROCLOR 1254, Method: PREINCUBATION inactive; negative | [1] inactive; negative | Test System: AMES SALMONELLA TYPHIMURIUM, Strain/Indicator: TA98, Metabolic Activation: RAT, LIVER, S-9, AROCLOR 1254, Method: PREINCUBATION inactive; negative | Test System: AMES SALMONELLA TYPHIMURIUM, Strain/Indicator: TA100, Metabolic Activation: HAMSTER, LIVER, S-9, AROCLOR 1254, Method: PREINCUBATION inactive; negative | Test System: AMES SALMONELLA TYPHIMURIUM, Strain/Indicator: TA100, Metabolic Activation: NONE, Method: PREINCUBATION inactive; negative | [12] inactive; negative | Test System: AMES SALMONELLA TYPHIMURIUM, Strain/Indicator: TA1535, Metabolic Activation: HAMSTER, LIVER, S-9, AROCLOR 1254, Method: PREINCUBATION inactive; negative | Test System: AMES SALMONELLA TYPHIMURIUM, Strain/Indicator: TA1535, Metabolic Activation: NONE, Method: PREINCUBATION inactive; negative | Test System: AMES SALMONELLA TYPHIMURIUM, Strain/Indicator: TA1535, Metabolic Activation: RAT, LIVER, S-9, AROCLOR 1254, Method: PREINCUBATION inactive; negative | Test System: AMES SALMONELLA TYPHIMURIUM, Strain/Indicator: TA1537, Metabolic Activation: HAMSTER, LIVER, S-9, AROCLOR 1254, Method: PREINCUBATION inactive; negative | Test System: AMES SALMONELLA TYPHIMURIUM, Strain/Indicator: TA1537, Metabolic Activation: NONE, Method: PREINCUBATION inactive; negative | Test System: AMES SALMONELLA TYPHIMURIUM, Strain/Indicator: TA1537, Metabolic Activation: RAT, LIVER, S-9, AROCLOR 1254, Method: PREINCUBATION inactive; negative | [4] inactive; negative
active: [5] active; positive

NC(=O)c1cccc2cccnc12
active: [7] active; positive
inactive: [2] inactive; negative | [6] inactive; negative | [3] inactive; negative | [8] inactive; negative | [9] inactive; negative | [10] inactive; negative | [11] inactive; negative

O=NN(c1ccc([N+](=O)[O-])cc1)C1OC[C@@H](O)[C@@H](O)[C@H]1O (stereo partly specified)
active: [3] active; positive

Nc1c(O)ccc2ccccc12
inactive: [12] inactive; negative
